Assay results as given in patent US20080261866A1, “Compositions Comprising Glycosaminoglycan and Nonsteroidal Anti-Inflammatory Drug” (PANACEA BIOTEC LTD., priority 2005, published 2008).

Tests used:
[1] = system: diclofenac-induced gastric ulcers; experiment: Diclofenac-induced acute gastric ulcers in rats; conditions: Single oral administration of diclofenac free acid 100 mg/kg, fasted animals
Experimental: Wistar rats of either sex were fasted overnight and weighing 170-200 g at the time of testing were used throughout. […] A dosing volume of 10 ml/kg was used for each sequential solution or suspension. All doses were coded and the test was performed under a code not known to the observer.
The ulcers were induced as described by Chan et al. (1995). In brief, overnight fasted animals were weighed and randomly divided into four groups. […] The number of ulcers was identified using 10× magnifying lens, counted, multiplied by respective score, and summed up for each animal. The mean score as ulcer index in each group was calculated as mentioned below.

[2] = system: Indomethacin-induced gastric ulcers; experiment: Indomethacin-induced acute gastric ulcers in rats; assay type: in vivo, Wistar rats; conditions: Single oral administration of indomethacin 20 mg/kg, fasted animals
Experimental: The observed unexpected gastroprotective effect of Chondroitin sulphate is evidenced by test conducted in rats. Wistar rats of either sex were procured from Central Animal House facility, Panacea Biotec Ltd., India. The animals were fasted overnight and those weighing between 150-170 gms at the time of testing were used throughout. […] In brief, overnight fasted animals were administered orally with 20 mg/kg of Indomethacin on the day of experimentation. […] [table]

| SMILES | Gastric damage (in words) [1] | Gastric damage (in words) [2] |
| --- | --- | --- |
| O=C(O)Cc1ccccc1Nc1c(Cl)cccc1Cl [Diclofenac, Diclofenac free acid] | severe gastric damage | – |
| COc1ccc2c(c1)c(CC(=O)O)c(C)n2C(=O)c1ccc(Cl)cc1 [Indomethacin] | – | severe gastric damage |
